One data set deals with p96-isoform of Dab2 (Homo sapiens (Human), UniProt P98082). In words: Peptide pull-down from CFBE cell lysates and western blot. It is filed as binding. To be noted: CFBE cell lysates, western blot. Here is the method:
(§1) Peptide Pull-down and Western Blotting. Streptavidin-paramagnetic particles (Promega) were washed twice with wash buffer (50 mM Tris pH 8.0, 150 mM NaCl, 2 mM EGTA, 2 mM EDTA, 5% glycerol, 1 mM DTT) and incubated with 20 μM BT-STA02 (N-terminally biotinylated STA02) for 1 hour on a rotator at 4° C. Beads were then washed twice with wash buffer and once with lysis buffer (50 mM Tris pH 8.0, 150 mM NaCl, 2 mM EGTA, 2 mM EDTA, 5% glycerol, 1 mM DTT, 1% IGEPAL, complete protease inhibitor tablet (Roche)) before incubation with cell lysate. CFBE cells were washed twice with cold PBS, incubated with lysis buffer for 20 minutes shaking at 4° C., scraped, passed through a 27G1/2 syringe, and spun at 13000 rpm for 15 minutes at 4° C. The supernatant was incubated with BT-STA02-coated beads for 2 hours on a rotator at 4° C. Beads were then washed twice with wash buffer and bound protein was eluted with Laemmli sample buffer (Bio-Rad) at 45° C. for 10 minutes. Samples were run on a 7.5% SDS-PAGE gel and probed with anti-Dab2 (BD Biosciences) or anti-p96 Dab2 (Epitomics).
(§2) Since Dab2 is a multi-modular adaptor protein, it was determined whether STA02 binding to the DH domain occurred with the full-length (FL) protein and in the context of other cellular interacting partners. To this end, the binding of STA02 to FL-Dab2 from bronchial epithelial (CFBE) cell lysates was tested in a pull-down assay. […]

In a further data set the target is p67-isoform of Dab2 (Homo sapiens (Human), UniProt P98082). Described as above. To be noted: CFBE cell lysates, western blot. The format is binding. As for the experimental part:
as §1, §2

In data set [1] the target is T1, Dab2-DH domain (Homo sapiens (Human), UniProt P98082). Kind of data set: Fluorescence polarization competition assay to identify small molecule inhibitors. Also on record: key to Ki: n.a., not active; +, fluorescence change with FP. To be noted: FP competition. It is filed as binding. Here is the method:
Fluorescence Polarization Competition Assay to Identify Small Molecule Inhibitors. […] Unlabeled competitor peptide (STA02) or compound hits were serially diluted and mixed with the protein-reporter mix. Percent DMSO in all samples was 1%. Plates were mixed by vibration, centrifuged at 1200 g for 2 minutes and allowed to equilibrate at room temperature for 30-45 minutes before measurement. Fluorescence polarization was measured at an excitation wavelength of 470±5 nm and an emission wavelength of 525±20 nm. Data analysis and calculation of binding affinities were as described above.
To test the validity of these hits on a smaller scale and to quantify the binding potencies (Ki values), an FP competition assay was carried out.

A further data set deals with CFBE cells. In words: Toxicity assay (LDH). The format is cell-based, human. To be noted: for toxicity, of maximum toxicity (1% TRITON): 3 or 12 hours. Here is the method:
Toxicity and Cell Viability Assays. CFBE cells were seeded at 5×10^3 in 96-well plates. Cells were treated in fetal bovine serum (FBS)-free minimum essential medium (MEM, Gibco). Assays were performed and measured according to the CYTOTOX 96 Non-Radioactive cytotoxicity Assay (G1780) kit (Promega) and the […] 96 Aqueous One solution Cell proliferation Assay kit (Promega) instructions. Percent toxicity for the LDH assay was calculated as: […]
A background signal of 0.2% DMSO in media from a well without cells was subtracted from all readings before the above-referenced calculations.

The next data set has as its target ΔF508-CFTR (Homo sapiens (Human), UniProt P13569, DEL508-508). In words: Short-circuit current (Isc), chloride currents in combination therapy. To be noted: for chloride currents: 20 μM, in parallel with VX809 0.1 μM (48 hours) and Kalydeco (acutely), CFBE cells.
Data set [2] relates to subjects with the G551D mutation. To be noted: 48-week clinical trial; cited from earlier work.
The test system of another data set is CF patients. To be noted: in combination with KALYDECO; cited from earlier work.
Data set [3] deals with T1, Dab2-DH domain. Kind of data set: Isothermal titration calorimetry. The format is binding. Here is the method:
Isothermal Titration calorimetry. Dab2-DH protein was dialyzed versus 150 mM NaCl, 25 mM Tris pH 8.0, and 0.02% NaN3 or 150 mM NaCl, 25 mM NaH2PO4/Na2HPO4 pH 7.4, and 0.02% NaN3. Peptides were solubilized in recovered and degassed dialysis buffer. […] Thus, to maintain a constant DMSO concentration between the cell chamber (protein solution) and the syringe (peptide solution), 1-2% DMSO was added to the ITC-protein solution. Experiments were performed at 15, 25, or 35±0.2° C. on a MICROCAL VP-ITC calorimeter. A 2 μL peptide injection over 4.1 seconds preceded 30-10 μL injections over 300 seconds each. The system was allowed to equilibrate (reach baseline) between injections for 300 seconds while stirring at a speed of 300 rpm. ITC thermograms were fit to a single-site binding model using Origin software package v11. The ITC data were presented by showing the baseline-adjusted titration as heat flow versus time (top) and the peak-integrated concentration-normalized molar heat flow per injection versus the peptide: protein molar ratio (bottom). To account for the contribution of protein, peptide, and buffer protonation enthalpies to the binding enthalpies and consequently the binding constants, titrations in buffers with known and distinct heats of ionization (Tris and Phosphate buffers) were conducted.
Background: Isothermal titration calorimetry measures the heat released or taken up as one component is titrated into another.

The target in data set [4] is T1, Dab2-DH domain. In words: Fluorescence polarization competition binding of unlabeled peptides (reporter F*-STA02). To be noted: STA02 compared to STA01. Here is the method: Fluorescence Polarization. Fluorescence polarization (FP) data were measured on a microplate reader (Tecan Infinite M1000, Mannedorf, Switzerland) at 27° C. […] Plates were mixed by vibration, centrifuged for 2 minutes at 1200 g to remove air bubbles and allowed to equilibrate for 30 minutes at room temperature before measurement. […] Unlabeled competitor peptides were serially diluted and mixed with the protein-reporter mix. […] [formula] where [P]tot=total protein concentration and Kd=equilibrium dissociation constant of [PL]. Competition isotherms were fit using a non-linear least-squares algorithm implemented in EXCEL using the SOLVER function. rexp was fit to: [formula] where the free protein concentration [P] in the presence of both the reporter and competitive inhibitor was calculated as a function of the total protein and ligand concentrations and the equilibrium dissociation constant Kd (known) and Ki (fit), respectively, by exact analytical solution of the resulting cubic equation (Wang, et al. (1995) Biotechnol. Prog. 11:558-64).
(In general: Polarisation of emitted light reports the rotation of a fluorescent probe.)

Where [5] appears, read: reporter F*-STA02, read-out: Ki.

SMILES strings stand for the structures. Read-outs that look alike come from different tables or passages of the source. Peptide text beside a SMILES is read from it. * marks the point of attachment. Biotin = O=C1N[C@H]2[C@H](CS[C@H]2CCCCC(=O)*)N1; Ahx = NCCCCCC(=O)O

T1 sequence (P98082 33-191): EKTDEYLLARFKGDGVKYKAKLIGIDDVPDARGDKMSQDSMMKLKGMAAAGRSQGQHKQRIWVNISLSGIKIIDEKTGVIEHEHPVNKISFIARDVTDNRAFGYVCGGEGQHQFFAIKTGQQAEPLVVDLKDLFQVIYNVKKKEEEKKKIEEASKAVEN
Chain of p96-isoform of Dab2 (P98082 whole entry, canonical isoform): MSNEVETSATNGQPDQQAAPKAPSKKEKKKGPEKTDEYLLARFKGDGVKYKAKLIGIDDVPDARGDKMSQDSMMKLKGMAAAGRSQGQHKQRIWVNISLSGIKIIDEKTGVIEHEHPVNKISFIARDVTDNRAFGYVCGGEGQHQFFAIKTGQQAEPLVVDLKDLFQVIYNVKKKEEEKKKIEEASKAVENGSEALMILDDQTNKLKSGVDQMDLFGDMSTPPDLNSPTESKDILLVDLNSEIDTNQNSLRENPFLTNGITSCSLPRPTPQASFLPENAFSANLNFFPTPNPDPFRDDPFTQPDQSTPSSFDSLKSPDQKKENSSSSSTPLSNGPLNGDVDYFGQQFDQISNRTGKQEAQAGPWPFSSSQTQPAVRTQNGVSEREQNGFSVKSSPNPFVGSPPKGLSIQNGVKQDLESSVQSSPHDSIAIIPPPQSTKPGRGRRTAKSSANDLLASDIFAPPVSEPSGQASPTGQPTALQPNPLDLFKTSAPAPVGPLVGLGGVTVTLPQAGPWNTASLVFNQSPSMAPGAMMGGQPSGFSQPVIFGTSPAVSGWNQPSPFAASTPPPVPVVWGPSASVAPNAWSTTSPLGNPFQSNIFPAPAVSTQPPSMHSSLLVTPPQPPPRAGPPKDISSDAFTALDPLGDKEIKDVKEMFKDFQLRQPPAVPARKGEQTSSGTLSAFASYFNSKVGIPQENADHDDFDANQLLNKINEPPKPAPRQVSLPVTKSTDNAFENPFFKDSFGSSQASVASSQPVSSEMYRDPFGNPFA
Chain of p67-isoform of Dab2 (P98082 other isoform, or with tags, fused parts or gaps): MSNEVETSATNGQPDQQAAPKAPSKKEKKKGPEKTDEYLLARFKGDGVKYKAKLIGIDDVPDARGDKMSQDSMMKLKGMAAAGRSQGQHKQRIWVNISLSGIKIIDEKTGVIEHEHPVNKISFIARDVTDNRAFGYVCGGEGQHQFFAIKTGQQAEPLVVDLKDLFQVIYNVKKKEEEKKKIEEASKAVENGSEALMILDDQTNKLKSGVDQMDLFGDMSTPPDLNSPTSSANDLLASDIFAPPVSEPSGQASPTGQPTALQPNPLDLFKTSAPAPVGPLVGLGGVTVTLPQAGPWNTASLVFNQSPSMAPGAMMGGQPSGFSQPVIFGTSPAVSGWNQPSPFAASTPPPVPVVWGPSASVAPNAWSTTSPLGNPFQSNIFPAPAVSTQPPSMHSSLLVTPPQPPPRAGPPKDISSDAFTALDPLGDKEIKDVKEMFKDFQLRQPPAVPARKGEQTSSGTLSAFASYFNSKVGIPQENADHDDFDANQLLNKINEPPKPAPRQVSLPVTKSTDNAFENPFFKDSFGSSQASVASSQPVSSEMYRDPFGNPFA

In the case of `CSCC[C@H](NC(=O)[C@H](CC(N)=O)NC(=O)[C@H](CCC(=O)O)NC(=O)[C@H](CCC(N)=O)NC(=O)[C@@H]1CCCN1C(=O)[C@H](CCC(N)=O)NC(=O)[C@H](Cc1ccc(O)cc1)NC(=O)[C@H](CC(N)=O)NC(=O)[C@@H]1CCCN1C(=O)[C@H](CC(N)=O)NC(=O)[C@H](CC(=O)O)NC(=O)[C@H](Cc1ccccc1)NC(=O)CNC(=O)CNC(=O)[C@H](CO)NC(=O)CNC(=O)[C@H](CO)NC(=O)CCCCCNC(=O)CCCC[C@@H]1SC[C@@H]2NC(=O)N[C@@H]21)C(=O)N[C@@H](CCC(N)=O)C(=O)N[C@@H](C)C(=O)O` [BT-STA02] ({Biotin-Ahx}-SGSGGFDNPNYQPQENMQA-OH; C-terminus assumed), the “binding of p96-isoform of Dab2” value at p96-isoform of Dab2 is listed as “bound”. The “binding of p67-isoform of Dab2” value on p67-isoform of Dab2 is “did not”.

One may read the Ki as a measure of affinity in units of concentration, obtained from inhibition or displacement. As to `CN1CCc2cccc3c2[C@@H]1Cc1ccc(O)c(O)c1-3.Cl` [Compound 1, S(+)-10,11-Dihydroxyaporphine Hydrochloride], on Dab2-DH domain [1] (setting [5]), the Ki is 1920 nM. The “toxicity, of maximum toxicity (1% TRITON)” value in the data set with CFBE cells (40 μM) amounted to 10%. Moreover, the toxicity in the data set with CFBE cells (40 μM, 24 hours) is listed as 20-40%. In addition, at ΔF508-CFTR, the chloride currents result is “enhanced chloride currents”.

As for `C[C@]12CC[C@@H]3c4cc(O)c(O)cc4CC[C@H]3[C@@H]1CC[C@@H]2O` [Compound 2, 2-Hydroxyestradiol], the “toxicity, of maximum toxicity (1% TRITON)” value in the data set on CFBE cells (40 μM) is 10%.

For `CC1(C)Cc2ccccc2-c2n[nH]c(=S)n21` [Compound 3, 5,5-dimethyl-5,6-dihydro [1,2,4]triazolo[3,4-a] isoquinoline-3(2H)-thione], the Ki at Dab2-DH domain [1] (setting [5]) and at Dab2-DH domain [1] (read-out: binding affinity (Ki)) was 779 nM in each case. Further, the toxicity result in the data set with CFBE cells (3 hours) was “no toxicity”. The “benefit compared to VX809 (ANOVA, P<0.05)” value at ΔF508-CFTR (20 μM in combination with VX809 0.1 μM) is reported as “statistically significant benefit”. Also, at ΔF508-CFTR, the chloride currents entry is “enhanced chloride currents”.

For the molecule `OCCN(CCO)c1nc(N2CCCCC2)c2nc(N(CCO)CCO)nc(N3CCCCC3)c2n1` [Compound 5, Dipyridamole], the Ki result at Dab2-DH domain [1] (symbols) was “+”. Moreover, the total fluorescence result at Dab2-DH domain [1] (Ki not obtained) is “increased total fluorescence”.

On to `CC(C)(C)c1cc(C(C)(C)C)c(NC(=O)c2c[nH]c3ccccc3c2=O)cc1O` [KALYDECO, N-(2,4-Di-tert-butyl-5-hydroxyphenyl)-4-oxo-1,4-dihydroquinoline-3-carboxamide], for which, in data set [2], the “drop in pulmonary exacerbations” value is 55%, the “improvement in lung function (predicted FEV1)” value is recorded as 10.6% and the “reduction in sweat chloride” value is on record as 48 mEq/L.

Regarding `Cc1ccc(NC(=O)C2(c3ccc4c(c3)OC(F)(F)O4)CC2)nc1-c1cccc(C(=O)O)c1` [Lumacaftor, 3-{6-{[1-(2,2-difluoro-1,3-benzodioxo1-5-yl)cyclopropanecarbonyl]amino}-3-methylpyridin-2-yl}benzoic acid], in the data set on CF patients, the “patients with >5% increase in FEV1” value is reported as 55% and the “patients with >10% increase in FEV1” value is 25%.

On to `CSCC[C@H](NC(=O)[C@H](CC(N)=O)NC(=O)[C@H](CCC(=O)O)NC(=O)[C@H](CCC(N)=O)NC(=O)[C@@H]1CCCN1C(=O)[C@H](CCC(N)=O)NC(=O)[C@H](Cc1ccc(O)cc1)NC(=O)[C@H](CC(N)=O)NC(=O)[C@@H]1CCCN1C(=O)[C@H](CC(N)=O)NC(=O)[C@H](CC(=O)O)NC(=O)[C@H](Cc1ccccc1)NC(=O)CNC(=O)[C@H](CC(N)=O)NC(=O)[C@@H](N)CCC(N)=O)C(=O)N[C@@H](CCC(N)=O)C(=O)N[C@@H](C)C(=O)O` [STA02], for which, on Dab2-DH domain [3] (Tris and phosphate buffers), the “net release of protons during binding (NH+)” value was found to be 0.04 per mole. At Dab2-DH domain [3] (Tris buffer, 25° C.), the ΔH is -20.7 ± 1.45 kcal/mol and the ΔS is reported as −37.8 cal/mol/K. For the same molecule, at Dab2-DH domain [3] (estimated, 37° C.), the TΔS is -16.1 kcal/mol, the ΔG was -8.9 kcal/mol and the ΔH is -25.0 kcal/mol. In addition, the “change of heat capacity, ΔCp” value at Dab2-DH domain [3] (from ΔH at 15, 25, and 35° C.) is listed as −320 cal/mol/K. The “increase in binding affinity” value on Dab2-DH domain [4] is recorded as 2 fold.

Source of the values: patent publication US10864248B2, “Dab2 inhibitors for the prevention and treatment of cystic fibrosis” (Trustees of Dartmouth College, priority 2014, dated 2020).
